The values that follow come from ChEMBL document CHEMBL1770059, “Identification of chemicals to inhibit the kinase activity of leucine-rich repeat kinase 2 (LRRK2), a Parkinson's disease-associated protein” (Bioorg Med Chem Lett, 2011).

For experiment [1], the target named is Serine/threonine-protein kinase mTOR (Homo sapiens) (UniProt P42345). Briefly: Inhibition of mTOR assessed as residual activity of enzyme at 10 uM.
Experiment [2] addresses T1, Mitogen-activated protein kinase kinase kinase 5 (Homo sapiens) (UniProt Q99683).
T1 sequence (whole entry): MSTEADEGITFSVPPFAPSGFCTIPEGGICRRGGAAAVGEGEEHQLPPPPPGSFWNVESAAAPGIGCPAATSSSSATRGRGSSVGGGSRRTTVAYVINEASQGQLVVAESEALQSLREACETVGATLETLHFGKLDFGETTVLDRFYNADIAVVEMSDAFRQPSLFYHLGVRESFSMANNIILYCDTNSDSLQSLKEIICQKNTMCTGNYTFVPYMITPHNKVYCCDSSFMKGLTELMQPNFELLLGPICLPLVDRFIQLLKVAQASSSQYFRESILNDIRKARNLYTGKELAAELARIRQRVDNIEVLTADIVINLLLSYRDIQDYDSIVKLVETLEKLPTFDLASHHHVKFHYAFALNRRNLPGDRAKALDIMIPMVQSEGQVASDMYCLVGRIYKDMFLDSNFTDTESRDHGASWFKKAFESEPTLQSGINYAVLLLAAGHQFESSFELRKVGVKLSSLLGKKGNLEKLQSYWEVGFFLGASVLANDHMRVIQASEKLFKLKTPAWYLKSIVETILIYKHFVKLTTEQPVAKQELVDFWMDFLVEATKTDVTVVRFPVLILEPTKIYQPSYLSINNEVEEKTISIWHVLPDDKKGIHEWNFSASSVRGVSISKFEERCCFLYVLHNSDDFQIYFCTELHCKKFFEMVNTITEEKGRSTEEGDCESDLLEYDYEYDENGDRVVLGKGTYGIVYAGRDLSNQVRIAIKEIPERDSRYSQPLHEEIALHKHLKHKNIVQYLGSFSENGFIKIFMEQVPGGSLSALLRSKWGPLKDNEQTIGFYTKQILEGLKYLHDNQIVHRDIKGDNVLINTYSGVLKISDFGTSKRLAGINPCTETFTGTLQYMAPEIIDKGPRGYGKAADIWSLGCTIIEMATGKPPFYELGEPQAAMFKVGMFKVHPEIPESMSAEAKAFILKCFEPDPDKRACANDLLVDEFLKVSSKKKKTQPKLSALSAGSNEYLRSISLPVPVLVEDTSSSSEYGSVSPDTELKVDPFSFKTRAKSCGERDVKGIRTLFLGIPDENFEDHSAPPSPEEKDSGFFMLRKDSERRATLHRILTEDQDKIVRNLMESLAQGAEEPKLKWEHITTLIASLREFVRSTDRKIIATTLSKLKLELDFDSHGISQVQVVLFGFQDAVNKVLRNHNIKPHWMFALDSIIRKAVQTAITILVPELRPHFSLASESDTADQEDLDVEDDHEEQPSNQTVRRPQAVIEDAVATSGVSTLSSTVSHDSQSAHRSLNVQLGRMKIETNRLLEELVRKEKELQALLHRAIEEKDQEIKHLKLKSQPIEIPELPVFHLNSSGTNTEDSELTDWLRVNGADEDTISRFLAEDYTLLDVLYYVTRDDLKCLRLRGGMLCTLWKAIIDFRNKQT
Briefly: Inhibition of ASK1 assessed as residual activity of enzyme at 10 uM.

Experiment [3] deals with T2, Mitogen-activated protein kinase kinase kinase 7 (Homo sapiens) (UniProt O43318).
T2 sequence (whole entry): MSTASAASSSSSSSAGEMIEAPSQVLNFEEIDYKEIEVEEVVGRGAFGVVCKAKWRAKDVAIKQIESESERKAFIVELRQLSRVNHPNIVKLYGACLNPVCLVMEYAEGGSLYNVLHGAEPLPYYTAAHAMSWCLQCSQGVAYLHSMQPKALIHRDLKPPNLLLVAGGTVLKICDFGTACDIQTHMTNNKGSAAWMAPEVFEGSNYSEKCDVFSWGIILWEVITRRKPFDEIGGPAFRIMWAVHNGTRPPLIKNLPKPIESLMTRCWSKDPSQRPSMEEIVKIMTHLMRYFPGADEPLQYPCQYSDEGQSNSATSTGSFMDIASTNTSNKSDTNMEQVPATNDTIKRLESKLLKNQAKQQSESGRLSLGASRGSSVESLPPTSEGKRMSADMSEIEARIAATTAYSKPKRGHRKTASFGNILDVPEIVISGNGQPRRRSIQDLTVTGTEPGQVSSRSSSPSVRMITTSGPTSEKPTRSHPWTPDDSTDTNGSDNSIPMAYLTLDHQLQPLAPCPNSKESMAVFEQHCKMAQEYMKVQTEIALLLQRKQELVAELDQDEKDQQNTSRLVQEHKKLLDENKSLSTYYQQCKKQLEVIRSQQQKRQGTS
Briefly: Inhibition of TAK1 assessed as residual activity of enzyme at 10 uM.

For the compound `Cc1cc(N/N=C/c2ccncc2)nc2ccccc12`, the Activity stood at 103% in experiment [1], 94% in experiment [2] and 68% in experiment [3].
